Source: PMC5974752, “Bax/Tubulin/Epithelial-Mesenchymal Pathways Determine the Efficacy of Silybin Analog HM015k in Colorectal Cancer Cell Growth and Metastasis” (Frontiers in Pharmacology, 2018)

Legend:
[1] = test system: LOVO; test: MTT assay; assay type: cell-based; conditions: Homo sapiens, 72 h incubation, mean ± SD of three experiments, read-out: IC50 ± SD, Colon LOVO
Description: The 3-(4,5-dimethylthiazol-2-yl)-2,5-diphenyltetrazolium bromide (MTT) assay was used to determine the sensitivity of the different CRC cells to the novel silybin derivatives (Hussein et al., [2017]; Manivannan et al., [2017]). The cells were seeded at a density of 4,000–5,000 cells/well in 96 well plates and incubated with serial dilutions of the compounds (0, 0.1, 0.3, 1, 3, 10, 30, and 100 μM). The MTT dye (4 mg/ml) was added after 72 h of incubation and incubated with the cells for an additional 4 h at 37°C. Following incubation, the media was discarded and the formazan crystals were dissolved by adding 100 μL of DMSO to each well. A DTX 880 multimode detector (Beckman Coulter Life, Indianapolis IN, USA) was used to determine the absorbance readings at a wavelength of 570 nm. The IC50 values were determined based on 3 separate experiments, with each experiment done in triplicate. The selectivity of the compounds was determined by comparing their cytotoxicity for CRC to normal epithelial cell lines (CHO, and CRL1459).

[2] = test system: HCT116 cells; test: Colony formation assay; assay type: cell-based, human; conditions: 2 and 4 μM, 12 h incubation, colonies 10–14 days, vs vehicle control
Description: In this assay, HCT116 cells were seeded in 6 well plates at a density of 250,000 cells/plate and allowed to grow overnight. Compounds 15j and 15k (0, 2 or 4 μM) were added the following day. After 12 h of incubation, the medium was discarded and cells were trypsinized with 0.25% trypsin, 2.21 mM EDTA, 1X, harvested, counted and reseeded in 6 well plates at a low density (500 cell/well). The cells were allowed to form colonies for 10–14 days at 37°C, with the medium being changed every other day. Subsequently, methanol was used to fix the colonies formed in each plate, followed by dyeing the colonies with 0.1% crystal violet dye for 30 min. Finally, colonies were viewed and counted under an EVOS microscope (Themo Fisher Scientific, Wayne, MI, USA). The colony formation rate equation was applied for each compound: Colony formation rate = number of colonies/number of seeded cells × 100 %.

[3] = test system: HCT116 cells; test: Detection of reactive oxygen species (H2DCF-DA); assay type: cell-based, human; conditions: 1, 2 and 4 μM, 24 and 48 h, vs vehicle
Description: H2DCF-DA was used as previously described (Amawi et al., [2017c]). The cells that had been incubated with the test compound were further incubated with 3 μM of the H2DCF-DA working solution for 30 min at 37°C. The fluorescence level of oxidized DCF (excitation at 485 nm and emission at 535 nm) was detected under EVOS digital fluorescent microscope at 40x.

[4] = test system: HCT116 cells; test: MitoTracker Red / Alexa Fluor 488 annexin V flow cytometry; assay type: cell-based, human; conditions: overnight
Description: The mitochondrial membrane potential and the induction of apoptosis were analyzed in HCT116 cells using the MitoTracker Red and Alexa Fluor 488 annexin V kits for flow cytometry as previously described (Karthikeyan et al., [2015]). Six well plates were used for seeding of cells, followed by incubation with 15j or 15k (0, 1, 2, and 4μM) for overnight. Subsequently, the cells were harvested, counted and 4 μl of a 10μM working solution of MitoTracker Red was added to each 1 ml cell suspension, followed by 30 min of incubation at 37°C with 5% CO2. The cells were resuspended in 100 μl of annexin binding buffer and 5 μl of Alexa Fluor 488 annexin V was added to the suspension and incubated for 15 min. Finally, 400 μl of annexin-binding buffer was added and the stained cells were detected by flow cytometry. The fluorescence emission at 530 and 585 nm was measured using a BD Accuri™ C6 flow cytometer and analyzed using FCS express 5 plus De Novo software.

[5] = test system: HCT116 cells; test: IncuCyte annexin V red real time apoptosis; assay type: cell-based, human
Description: For real time quantification of apoptosis induction, the fluorescent Caspase 3/7 and Annexin V red reagents, with an excitation maximum of 500 and 593 nm and an emission maximum of 530 and 614 nm, respectively, were used. The HCT116 cells were seeded at a density of 1,000 cell/well and allowed to grow overnight. The next day, compound 15k at 0, 2, 4, and 8μM was prepared and added, directly followed by the caspase 3/7 reagent at final concentration of 5μM or annexin V red reagent in final dilution of 1: 200. The cells were then incubated in IncuCyte Zoom live cell imaging and pictures were taken every 2 h for up to 50 h and analyzed using the integrated software. The IncuCyte® Caspase-3/7 apoptosis assay reagent couples the activated caspase-3/7 recognition motif (DEVD) to NucView™ 488, a DNA intercalating dye to enable quantification of apoptosis over time. Caspase-3/7 assay reagent is non-perturbing to cell growth and morphology. When added to cell culture medium, this inert, non-fluorescent substrate crosses the cell membrane, where it is cleaved by activated caspase-3/7, resulting in the release of the DNA dye and green fluorescent staining of nuclear DNA.

[6] = test system: E-cadherin; test: Immunofluorescence staining in HCT116 cells; assay type: cell-based, human; conditions: 2 μM p < 0.05, 4 μM p < 0.001, 24 h
Description: (§1) HCT116 cells were used to ascertain the action of compound 15k on α-tubulin, E-cadherin and β-catenin. The cells were seeded on to culture glass covers inserted in 6 well plates. The compound was added at 0, 2, and 4μM and incubated with the cells overnight at 37°C. Paraformaldehyde (4%) was used for cell fixation, followed by permiabilization with 0.3% triton 100× in PBS for 25 min. The cells were blocked with 3% BSA in PBS for 30 min. The α-tubulin, E-cadherin, or β-catenin rabbit antibodies in the correct dilution were added, followed by fluorescent anti-rabbit secondary antibody in the same manner. The nuclei were stained with the nuclear dye, DAPI, for 15 min. The EVOS cell imaging system was used to detect the fluorescence from each slide.

[7] = test system: α-tubulin; test: Immunofluorescence staining in HCT116 cells; assay type: cell-based, human; conditions: 2 or 4 μM, overnight, p < 0.001 vs control
Description: as §1

[8] = test system: β-catenin; test: Immunofluorescence staining in HCT116 cells; assay type: cell-based, human; conditions: 2 and 4 μM, p < 0.01 vs vehicle
Description: as §1

O=C(/C=C/c1cccc(OCc2ccccc2)c1)c1ccc(O)cc1 [Compound 15k]
IC50 [1]: 2.3 ± 0.2 µM | colony formation rate [2]: decreased significantly | ROS formation (oxidized DCF fluorescence) [3]: significantly increased ROS formation | cells undergoing apoptosis, quadrant II (Q2) ([4]; 2 μM, vehicle 2.83%): 47% | viability at 2 µM ([4]; Homo sapiens, HCT-116, 2 μM, vehicle 90.66%, read-out: viable cells in quadrant I (Q1)): 35.8% | viability at 4 µM ([4]; Homo sapiens, HCT-116, 4 μM, vehicle 90.66%, read-out: viable cells in quadrant I (Q1)): 36% | annexin V red fluorescence over time ([5]; 2, 4 or 8 μM, vs control): significantly increased annexin V red fluorescence | incubation time at which significant difference in annexin V fluorescence appeared ([5]; vehicle vs 15k): 12 h | E-cadherin expression (immunostaining) [6]: significantly increased | α-tubulin green fluorescence [7]: significant reduction | level of β-catenin available for nuclear translocation (immunostaining) [8]: significant decrease
